# Calls of active or inactive are those of the source.
# Legend:
# [1] = A Cell Based Secondary Assay To Explore Cytotoxicity of Compounds that Sensitize Mycobacterium Tuberculosis to Beta-Lactam Antibiotics.; type: functional
# [2] = molecular target: T1, Calpain-2 catalytic subunit (Sus scrofa, UniProt P43367); test: pig calpain II inhibitor potency, dose response, biochemical, fluorogenic peptide substrate (AID 1420); type: functional
# T1 sequence (P43367 whole entry): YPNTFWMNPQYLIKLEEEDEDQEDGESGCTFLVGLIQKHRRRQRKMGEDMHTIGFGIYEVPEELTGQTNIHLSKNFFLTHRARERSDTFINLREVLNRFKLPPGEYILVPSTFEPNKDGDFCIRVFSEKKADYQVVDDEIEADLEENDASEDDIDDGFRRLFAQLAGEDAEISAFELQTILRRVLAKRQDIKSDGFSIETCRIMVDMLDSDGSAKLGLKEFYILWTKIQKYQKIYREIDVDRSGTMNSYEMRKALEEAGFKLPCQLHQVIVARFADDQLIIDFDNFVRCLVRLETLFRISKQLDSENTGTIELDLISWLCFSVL
# [3] = molecular target: T2, Mannose-6-phosphate isomerase (Homo sapiens, UniProt P34949); test: human PMI inhibitors, high substrate, primary screen, biochemical, fluorescence intensity, high mannose 6-phosphate (AID 1220)
# T2 sequence (P34949 whole entry): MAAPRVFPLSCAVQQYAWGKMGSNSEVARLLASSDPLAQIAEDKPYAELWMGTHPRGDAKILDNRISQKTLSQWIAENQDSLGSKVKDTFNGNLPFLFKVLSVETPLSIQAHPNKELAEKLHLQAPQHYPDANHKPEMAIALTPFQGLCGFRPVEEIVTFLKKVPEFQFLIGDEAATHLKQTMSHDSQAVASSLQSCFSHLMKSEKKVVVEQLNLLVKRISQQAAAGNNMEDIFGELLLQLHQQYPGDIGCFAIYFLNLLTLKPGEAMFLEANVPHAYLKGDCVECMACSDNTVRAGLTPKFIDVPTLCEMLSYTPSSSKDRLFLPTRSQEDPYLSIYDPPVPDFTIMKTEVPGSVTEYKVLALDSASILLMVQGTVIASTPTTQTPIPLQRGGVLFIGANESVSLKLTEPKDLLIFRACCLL
# [4] = molecular target: FAD-linked sulfhydryl oxidase ALR (Homo sapiens, UniProt P55789); test: inhibitors of human ALR sulfhydryl oxidase, dose response, biochemical, H2O2 detection, luminescence, cherry-pick (AID 493248)
# [5] = molecular target: T3, Neuropeptides B/W receptor type 1 (Homo sapiens, UniProt P48145); test: Fluorescence-based dose response cell-based high throughput screening assay to identify antagonists of the G-protein coupled receptor 7 (GPR7). [Related pubchem assays: 1952 (Screening assay (GPR7 antagonists).), 1880 (Summary AID.)]; type: functional
# T3 sequence (P48145 whole entry): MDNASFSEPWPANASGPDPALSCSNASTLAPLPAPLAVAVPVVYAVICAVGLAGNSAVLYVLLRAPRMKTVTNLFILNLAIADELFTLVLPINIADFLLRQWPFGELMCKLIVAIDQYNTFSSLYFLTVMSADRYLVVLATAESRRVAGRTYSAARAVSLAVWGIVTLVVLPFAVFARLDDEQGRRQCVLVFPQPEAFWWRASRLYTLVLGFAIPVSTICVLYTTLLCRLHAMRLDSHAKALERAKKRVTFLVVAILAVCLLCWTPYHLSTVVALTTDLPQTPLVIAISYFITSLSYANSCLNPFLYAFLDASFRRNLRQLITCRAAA
# [6] = molecular target: T4, Melanin-concentrating hormone receptor 1 (Homo sapiens, UniProt Q99705); test: Fluorescence-based counterscreen for antagonists of the G-protein coupled receptor 7 (GPR7): cell-based high throughput dose response assay to identify antagonists of the melanin-concentrating hormone receptor 1 (MCHR1).; type: functional
# [7] = A cytotoxicity screen of small molecule inhibitors of the PhoP region in Salmonella typhi identified in the primary screen. [Related pubchem assays: 1850, 1864, 1985 ]; type: functional
# [8] = cytotoxicity in HEK-293T cells, dose response, cytotoxicity control for BCR NF-kB inhibitor project, luminescence, B-cell screen hits (AID 489021); type: functional, cell-based;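 note: HEK-293T cells carrying an NF-kB luciferase reporter; cells exposed to compound for about 14 hours before viability readout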
# CHO-K1 = test: (§1) Counterscreen for antagonists of the orexin 1 receptor (OX1R; HCRTR1): Homogeneous time resolved fluorescence (HTRF)-based cell-based dose response assay to identify antagonists of the parental CHO-K1 cell line. [Related pubchem assays (depositor defined):AID434989, AID435008, AID463079, AID485270, AID492963, AID492964, AID492965, AID493232, AID504699, AID504701]; type: functional; conditions: Cricetulus griseus
# [9] = as §1, with “Fluorescence-based” for “Homogeneous time resolved fluorescence (HTRF)-based”, “cell-based high throughput” for “cell-based”, “CHO” for “CHO-K1”; type: functional
# [10] = molecular target: T5, Orexin/Hypocretin receptor type 1 (Homo sapiens, UniProt O43613); test: Homogeneous Time Resolved Fluorescence (HTRF)-based cell-based high throughput dose response assay for antagonists of the orexin 1 receptor (OX1R; HCRTR1). [Related pubchem assays (depositor defined):AID434989, AID435008, AID463079, AID485270, AID492963, AID492964, AID492965, AID493232, AID504717, AID504718]; type: functional
# T5 sequence (O43613 whole entry): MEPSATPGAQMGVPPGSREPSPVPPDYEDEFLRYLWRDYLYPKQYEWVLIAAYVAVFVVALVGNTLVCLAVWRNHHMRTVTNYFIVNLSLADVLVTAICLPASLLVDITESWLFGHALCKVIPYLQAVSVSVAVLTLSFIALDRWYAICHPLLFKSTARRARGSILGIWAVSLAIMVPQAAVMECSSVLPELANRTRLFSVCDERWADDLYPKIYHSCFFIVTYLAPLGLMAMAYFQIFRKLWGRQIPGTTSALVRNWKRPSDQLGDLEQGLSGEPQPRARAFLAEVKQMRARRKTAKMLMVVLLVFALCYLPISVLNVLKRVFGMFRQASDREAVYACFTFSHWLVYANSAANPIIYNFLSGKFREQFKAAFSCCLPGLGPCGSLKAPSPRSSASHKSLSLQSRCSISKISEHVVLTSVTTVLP
# [11] = molecular target: T5, Orexin/Hypocretin receptor type 1; test: Fluorescence-based cell-based high throughput dose response assay for antagonists of the orexin 1 receptor (OX1R; HCRTR1). [Related pubchem assays (depositor defined):AID434989, AID435008, AID463079, AID485270, AID492963, AID492964, AID492965, AID493232, AID504717, AID504718]; type: functional
# [12] = test system: Streptococcus sp. 'group A'; test: growth inhibition of control SK(-) GAS strain, dose response, counter-screen for streptokinase expression inhibitor project, luminescence, kanamycin, BacTiterGlo, confirmation (AID 1900); type: functional, organism-based
# BJ [13] = test: cytotoxicity toward BJ-TERT fibroblasts, dose response, cell-based, RAS-independent, luminescence (AID 1933); type: functional; conditions: Homo sapiens
# [14] = molecular target: T6, Voltage-gated N-type calcium channel alpha-1B subunit/Amyloid beta A4 precursor protein-binding family A member 1 (Homo sapiens, UniProt Q00975+Q02410); type: protein assay
# Streptokinase A = molecular target: T7, Streptokinase A (Streptococcus pyogenes serotype M1, UniProt P10520); test: S. pyogenes streptokinase expression inhibitors, potency, dose response, plasminogen activation absorbance, OD405 (AID 1914); type: functional, Streptococcus pyogenes M1 GAS;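 note: secreted streptokinase activity via plasminogen activation per viability signal from cell pellet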
# T7 sequence (P10520 whole entry): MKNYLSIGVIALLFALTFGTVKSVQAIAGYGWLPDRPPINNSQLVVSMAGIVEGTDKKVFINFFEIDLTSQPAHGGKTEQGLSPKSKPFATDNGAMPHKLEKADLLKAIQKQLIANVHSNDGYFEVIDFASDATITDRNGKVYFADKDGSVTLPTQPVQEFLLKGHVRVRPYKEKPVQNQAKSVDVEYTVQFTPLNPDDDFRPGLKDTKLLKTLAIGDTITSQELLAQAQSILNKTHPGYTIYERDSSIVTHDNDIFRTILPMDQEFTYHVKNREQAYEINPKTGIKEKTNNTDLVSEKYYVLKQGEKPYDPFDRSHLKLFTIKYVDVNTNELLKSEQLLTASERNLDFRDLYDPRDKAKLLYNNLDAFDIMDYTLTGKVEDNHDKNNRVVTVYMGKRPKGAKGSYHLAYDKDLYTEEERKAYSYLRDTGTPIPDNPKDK
# BJ [15] = test: cells; type: functional, cell-based; conditions: Homo sapiens
# [16] = molecular target: T6, Voltage-gated N-type calcium channel alpha-1B subunit/Amyloid beta A4 precursor protein-binding family A member 1; type: protein assay; remark: listed apart in the source
# BJ [17] = test: cytotoxicity toward BJ-TERT-LT-ST fibroblasts, dose response, cell-based, RAS-independent, luminescence (AID 1935); type: functional; conditions: Homo sapiens;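 note: BJ fibroblasts immortalized with TERT plus LT and ST oncogenes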
# [18] = cytotoxicity toward DRD oncogenic fibroblasts, dose response, cell-based, non-viral oncogenic, luminescence (AID 1934); type: functional; conditions: Homo sapiens
# Streptococcus = test: Group A Streptococcus viability loss, dose response, counter-screen for streptokinase expression inhibitor project, luminescence, BacTiterGlo (AID 1915); type: functional, organism-based;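 note: potency for reduction of bacterial viability or growth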
# [19] = Luminescence Cell-Based Dose Retest to Confirm Inhibitors of Cancer Stem Cells. [Related pubchem assays (depositor defined):AID2717, AID2721]; type: functional; conditions: Homo sapiens
# Galanin receptor type 3 = molecular target: T8, Galanin receptor type 3 (Homo sapiens, UniProt O60755); test: Fluorescence-based cell-based primary high throughput dose response assay to identify antagonists of the Galanin Receptor 3 (GalR3).; type: functional
# T8 sequence (O60755 whole entry): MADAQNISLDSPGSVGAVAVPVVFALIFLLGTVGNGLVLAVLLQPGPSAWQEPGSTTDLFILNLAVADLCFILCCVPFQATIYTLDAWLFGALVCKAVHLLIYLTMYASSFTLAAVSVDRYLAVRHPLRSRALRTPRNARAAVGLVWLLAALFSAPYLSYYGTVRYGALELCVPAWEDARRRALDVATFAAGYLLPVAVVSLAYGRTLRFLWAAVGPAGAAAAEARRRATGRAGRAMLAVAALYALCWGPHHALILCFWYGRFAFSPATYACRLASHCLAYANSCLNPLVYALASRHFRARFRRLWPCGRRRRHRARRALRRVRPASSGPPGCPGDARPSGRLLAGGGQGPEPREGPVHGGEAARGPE
# cells = type: functional, cell-based; conditions: HEK-CNG
# Trypsin = Trypsin (Sus scrofa, UniProt P00761); test: porcine trypsin inhibitors, dose response, selectivity assay for Rce1 protease inhibitor project, biochemical, quenched peptide fluorescence, cherry-pick (AID 488789)
# CAAX prenyl protease 2 = molecular target: T9, CAAX prenyl protease 2 (Homo sapiens, UniProt Q9Y256); test: human Rce1 protease inhibitors, dose response, biochemical, yeast membranes, quenched-peptide fluorescence, cherry-pick (AID 588849)
# T9 sequence (Q9Y256 whole entry): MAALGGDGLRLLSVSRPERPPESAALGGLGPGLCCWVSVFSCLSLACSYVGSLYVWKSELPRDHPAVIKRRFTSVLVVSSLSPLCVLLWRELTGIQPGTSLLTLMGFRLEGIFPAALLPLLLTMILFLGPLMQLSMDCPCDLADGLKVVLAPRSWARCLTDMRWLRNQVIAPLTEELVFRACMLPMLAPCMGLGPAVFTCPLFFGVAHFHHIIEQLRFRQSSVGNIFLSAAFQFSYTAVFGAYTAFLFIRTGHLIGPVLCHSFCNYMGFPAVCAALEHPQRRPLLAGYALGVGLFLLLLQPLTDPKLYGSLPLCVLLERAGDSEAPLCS
# [20] = molecular target: T4, Melanin-concentrating hormone receptor 1; test: Late-stage fluorescence-based counterscreen for antagonists of the G-protein coupled receptor 7 (GPR7): cell-based dose response assay to identify antagonists of the melanin-concentrating hormone receptor 1 (MCHR1). [Related pubchem assays (depositor defined):AID1861, AID1880, AID1952, AID2148, AID2251, AID2257, AID485339]; type: functional
# T4 sequence (Q99705 whole entry): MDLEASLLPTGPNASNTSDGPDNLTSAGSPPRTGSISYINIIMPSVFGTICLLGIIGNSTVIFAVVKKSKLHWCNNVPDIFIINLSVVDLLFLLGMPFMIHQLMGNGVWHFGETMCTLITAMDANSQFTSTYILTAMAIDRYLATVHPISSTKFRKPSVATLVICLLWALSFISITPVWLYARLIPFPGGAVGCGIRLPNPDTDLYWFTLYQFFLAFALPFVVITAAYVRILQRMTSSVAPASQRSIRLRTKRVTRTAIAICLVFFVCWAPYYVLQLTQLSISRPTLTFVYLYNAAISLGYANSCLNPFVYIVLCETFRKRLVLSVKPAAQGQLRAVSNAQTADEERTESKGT
# T6 sequence (Q00975 whole entry): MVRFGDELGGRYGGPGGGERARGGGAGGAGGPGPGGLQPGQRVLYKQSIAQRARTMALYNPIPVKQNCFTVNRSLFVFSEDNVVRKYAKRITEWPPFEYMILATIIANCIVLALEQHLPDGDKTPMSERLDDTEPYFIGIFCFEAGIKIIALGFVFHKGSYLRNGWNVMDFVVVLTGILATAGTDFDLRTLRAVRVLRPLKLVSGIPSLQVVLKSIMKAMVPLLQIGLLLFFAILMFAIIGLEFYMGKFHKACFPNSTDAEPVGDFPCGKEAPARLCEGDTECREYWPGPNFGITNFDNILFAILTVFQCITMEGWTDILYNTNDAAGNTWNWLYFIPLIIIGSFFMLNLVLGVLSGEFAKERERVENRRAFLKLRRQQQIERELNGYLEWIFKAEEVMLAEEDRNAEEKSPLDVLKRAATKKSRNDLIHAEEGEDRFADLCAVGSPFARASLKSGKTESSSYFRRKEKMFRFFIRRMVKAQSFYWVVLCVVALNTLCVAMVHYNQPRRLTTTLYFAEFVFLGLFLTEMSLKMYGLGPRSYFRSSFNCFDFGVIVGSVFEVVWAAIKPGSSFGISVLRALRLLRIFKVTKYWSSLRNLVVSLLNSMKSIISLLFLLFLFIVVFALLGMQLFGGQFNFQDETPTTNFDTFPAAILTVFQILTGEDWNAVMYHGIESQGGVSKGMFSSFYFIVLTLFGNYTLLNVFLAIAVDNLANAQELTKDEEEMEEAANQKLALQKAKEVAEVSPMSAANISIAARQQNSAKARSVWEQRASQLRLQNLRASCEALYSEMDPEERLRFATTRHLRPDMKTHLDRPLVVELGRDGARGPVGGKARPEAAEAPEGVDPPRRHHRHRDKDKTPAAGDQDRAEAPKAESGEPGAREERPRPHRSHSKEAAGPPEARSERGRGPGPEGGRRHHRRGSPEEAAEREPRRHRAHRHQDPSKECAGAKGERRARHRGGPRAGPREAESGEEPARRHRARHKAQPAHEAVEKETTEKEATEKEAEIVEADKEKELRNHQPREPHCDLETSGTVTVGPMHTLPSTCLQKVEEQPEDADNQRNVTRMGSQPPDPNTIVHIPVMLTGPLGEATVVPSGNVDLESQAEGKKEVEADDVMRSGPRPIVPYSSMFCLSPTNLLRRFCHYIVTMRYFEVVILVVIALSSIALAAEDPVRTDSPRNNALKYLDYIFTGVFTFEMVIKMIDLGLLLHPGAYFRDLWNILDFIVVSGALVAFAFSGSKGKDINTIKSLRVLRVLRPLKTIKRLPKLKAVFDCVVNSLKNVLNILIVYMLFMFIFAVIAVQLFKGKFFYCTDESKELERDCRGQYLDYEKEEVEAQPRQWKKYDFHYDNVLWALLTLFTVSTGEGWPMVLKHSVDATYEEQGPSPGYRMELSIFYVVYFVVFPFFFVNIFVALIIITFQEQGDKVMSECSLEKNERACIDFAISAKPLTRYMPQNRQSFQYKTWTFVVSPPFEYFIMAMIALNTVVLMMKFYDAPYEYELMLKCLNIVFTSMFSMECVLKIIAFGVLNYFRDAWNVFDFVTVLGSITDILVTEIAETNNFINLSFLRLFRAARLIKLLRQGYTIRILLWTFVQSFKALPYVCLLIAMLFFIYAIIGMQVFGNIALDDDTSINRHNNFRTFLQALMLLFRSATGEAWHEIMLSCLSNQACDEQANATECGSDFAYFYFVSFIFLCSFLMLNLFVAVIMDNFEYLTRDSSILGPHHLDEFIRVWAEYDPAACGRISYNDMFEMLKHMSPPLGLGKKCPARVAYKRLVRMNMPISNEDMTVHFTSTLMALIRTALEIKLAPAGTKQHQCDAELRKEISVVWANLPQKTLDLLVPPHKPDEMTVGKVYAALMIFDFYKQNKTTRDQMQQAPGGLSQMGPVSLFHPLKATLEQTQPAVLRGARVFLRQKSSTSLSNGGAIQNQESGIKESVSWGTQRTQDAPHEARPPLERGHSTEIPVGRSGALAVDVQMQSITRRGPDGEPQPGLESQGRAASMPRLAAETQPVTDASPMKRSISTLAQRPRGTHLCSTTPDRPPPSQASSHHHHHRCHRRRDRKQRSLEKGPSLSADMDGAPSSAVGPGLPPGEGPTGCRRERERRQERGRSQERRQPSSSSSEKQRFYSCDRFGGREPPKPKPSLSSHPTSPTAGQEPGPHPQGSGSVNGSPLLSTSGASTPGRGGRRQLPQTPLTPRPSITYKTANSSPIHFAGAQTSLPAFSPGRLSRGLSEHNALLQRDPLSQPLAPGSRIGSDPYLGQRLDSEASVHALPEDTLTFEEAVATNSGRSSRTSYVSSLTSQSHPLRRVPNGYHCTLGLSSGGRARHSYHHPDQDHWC
# T6 sequence (Q02410 whole entry): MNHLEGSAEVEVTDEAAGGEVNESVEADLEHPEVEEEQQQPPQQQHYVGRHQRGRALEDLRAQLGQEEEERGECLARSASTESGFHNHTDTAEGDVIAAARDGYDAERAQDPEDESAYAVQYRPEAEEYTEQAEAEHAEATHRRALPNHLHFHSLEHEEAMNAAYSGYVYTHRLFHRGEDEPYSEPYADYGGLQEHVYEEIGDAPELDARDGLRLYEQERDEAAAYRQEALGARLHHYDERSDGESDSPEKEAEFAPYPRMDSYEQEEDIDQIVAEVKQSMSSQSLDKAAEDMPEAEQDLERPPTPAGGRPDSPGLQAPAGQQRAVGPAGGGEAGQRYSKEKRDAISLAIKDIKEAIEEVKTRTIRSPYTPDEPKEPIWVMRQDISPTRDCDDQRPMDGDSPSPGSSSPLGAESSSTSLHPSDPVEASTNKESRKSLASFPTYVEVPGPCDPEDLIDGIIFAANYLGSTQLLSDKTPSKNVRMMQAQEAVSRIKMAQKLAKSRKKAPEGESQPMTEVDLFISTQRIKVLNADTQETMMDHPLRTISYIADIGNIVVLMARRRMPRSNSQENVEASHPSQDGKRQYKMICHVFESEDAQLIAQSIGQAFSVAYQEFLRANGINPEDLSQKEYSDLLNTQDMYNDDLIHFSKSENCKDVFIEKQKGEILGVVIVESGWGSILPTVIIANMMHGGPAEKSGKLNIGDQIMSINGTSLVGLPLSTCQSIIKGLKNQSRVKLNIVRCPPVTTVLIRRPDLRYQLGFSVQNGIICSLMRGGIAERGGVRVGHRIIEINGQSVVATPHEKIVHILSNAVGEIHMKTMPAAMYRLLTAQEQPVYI
# Sequence of FAD-linked sulfhydryl oxidase ALR (P55789 whole entry): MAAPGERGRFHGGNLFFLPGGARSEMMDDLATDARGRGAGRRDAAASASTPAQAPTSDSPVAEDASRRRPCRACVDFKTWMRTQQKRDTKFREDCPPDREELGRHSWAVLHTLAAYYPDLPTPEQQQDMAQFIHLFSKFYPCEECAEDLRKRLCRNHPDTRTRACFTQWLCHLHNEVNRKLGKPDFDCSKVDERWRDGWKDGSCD
# Sequence of Trypsin (P00761 whole entry): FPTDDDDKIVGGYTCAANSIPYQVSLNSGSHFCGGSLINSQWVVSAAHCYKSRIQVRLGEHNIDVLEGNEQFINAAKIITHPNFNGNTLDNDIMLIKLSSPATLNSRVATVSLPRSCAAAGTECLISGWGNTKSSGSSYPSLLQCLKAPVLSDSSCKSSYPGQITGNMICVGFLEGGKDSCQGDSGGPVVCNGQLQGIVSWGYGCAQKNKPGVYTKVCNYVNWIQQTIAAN
structure (smiles),measurement,setting,value
O=C(CCNc1ccccc1)c1cccc([N+](=O)[O-])c1,CC50,[1],25.6 µM (active)
same,IC50,[2],14.1 µM (not active)
same,IC50,[3],39.5 µM (active)
same,AC50,[4],5.58 µM (active)
Cc1ccccc1NC(=O)C1CCCN(c2ncnc3onc(-c4ccc(F)cc4)c23)C1 (centres undefined),IC50,[5],> 43.8 µM (not active)
same,IC50,[6],> 43.8 µM (not active)
CC(=O)c1c(N2CCN(c3cccc(Cl)c3)CC2)nc(=S)n(-c2ccccc2)c1C,EC50,[7],> 50 µM (active)
CCN=C(S)Nc1cccc(S(=O)(=O)Nc2ccccc2OC)c1,EC50,[7],> 50 µM (active)
Cc1ccc(C(=O)CSc2nnc(COc3ccccc3)o2)cc1,IC50,[8],> 80 µM (inactive)
Cc1ccc(CN2C(=O)c3ccccc3Sc3ccc(C(=O)NCCCN4CCOCC4)cc32)cc1,IC50,[5],6.89 µM (active)
same,IC50,[6],10.4 µM (not active)
CN(Cc1c(C(=O)N/N=C/c2cccc(O)c2)nnn1-c1nonc1N)c1ccccc1,IC50,CHO-K1,> 66.2 µM (inactive)
same,IC50,[9],24.2 µM (inactive)
same,IC50,[10],1.04 µM (active)
same,IC50,[11],5.74 µM (active)
Cc1ccccc1-c1cc(C(=O)Nc2sc(C(=O)OC(C)C)c(C)c2C#N)c2ccccc2n1,EC50,[12],14.6 µM (active)
same,EC50,BJ [13],> 150 µM (not active)
same,IC50,[14],17.9 µM (active)
same,EC50,Streptokinase A,> 150 µM (not active)
same,EC50,BJ [15],> 150 µM (inconclusive)
same,IC50,[16],> 50 µM (inactive)
same,EC50,BJ [17],> 75 µM (inconclusive)
same,EC50,[18],42.3 µM (active)
same,EC50,Streptococcus,26 µM (active)
same,AC50,[19],0.246 µM (active)
same,IC50,[8],45.6 µM (inactive)
same,IC50,Galanin receptor type 3,0.967 µM (active)
same,EC50,cells,> 29.9 µM (inactive)
CCOc1cc(-c2nc3c(C)cccn3c2NCC2CCCO2)ccc1O.CNC (centres undefined),AC50,Trypsin,12.7 µM (active)
same,AC50,CAAX prenyl protease 2,15.1 µM (active)
COc1ccc(Oc2c(-c3cccs3)cnn(-c3ccc(C)cc3)c2=O)cc1,IC50,[20],> 20 µM (inactive)
Cc1ccc(S(=O)(=O)Nc2ccc3c(c2)n(C)c(=O)n3C)cc1,IC50,[8],> 80 µM (inactive)
COc1ccc(N(C(=O)c2cccnc2)S(=O)(=O)c2cccc([N+](=O)[O-])c2)cc1,EC50,[7],> 50 µM (active)
COc1ccc(Oc2c(Cl)cnn(-c3ccc(C(C)(C)C)cc3)c2=O)cc1,IC50,[20],2.7 µM (active)

# — ChEMBL document CHEMBL1201862, “PubChem BioAssay data set” (2004)
